Test results taken from publication PMC9851200, “Multiparameter phenotypic screening for endogenous TFEB and TFE3 translocation identifies novel chemical series modulating lysosome function” (Autophagy, 2022).
Where two headings read alike, the source gives them in different places.

Key:
Test in all cases: biochemical
Format in all cases: binding
[1] = target: cellular kinases of SH-SY5Y cells (Homo sapiens, UniProt Q99759); conditions: 2µM; SH-SY5Y cells; Labeling Site Lys1; ELASKQVQFDPDSPETSKEVSALECEIQLLK; read-out: KiNativ in-cell binding, % Inhibition, MAP3K3
From the text: (§1) As KINOMEscan is an in vitro assay, and as different cell types have variable kinase expression profiles we sought to determine the kinase binding profile in our SH-SY5Y TFEB-relocalization cell model. […] Bound kinases were pulled down and analyzed by mass spectrometry to determine the in situ kinase binding profile for each compound.

[2] = target: T1, cellular kinases of SH-SY5Y cells (Homo sapiens, UniProt P45985); conditions: 2µM, SH-SY5Y cells; for inhibition at 2 µM: read-out: KiNativ in-cell binding, % Inhibition, MAP2K4
T1 sequence (P45985 1-399): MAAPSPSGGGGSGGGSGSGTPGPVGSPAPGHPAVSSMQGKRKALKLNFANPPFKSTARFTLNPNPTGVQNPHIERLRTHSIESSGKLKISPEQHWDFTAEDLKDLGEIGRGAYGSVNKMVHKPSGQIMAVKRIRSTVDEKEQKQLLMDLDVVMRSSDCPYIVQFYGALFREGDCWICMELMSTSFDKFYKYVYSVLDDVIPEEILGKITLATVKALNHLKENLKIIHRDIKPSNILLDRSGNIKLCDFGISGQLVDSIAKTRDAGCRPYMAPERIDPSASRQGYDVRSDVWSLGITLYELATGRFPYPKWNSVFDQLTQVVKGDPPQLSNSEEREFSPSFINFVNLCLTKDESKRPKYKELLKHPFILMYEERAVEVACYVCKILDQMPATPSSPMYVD
From the text: as §1

[3] = target: cellular kinases of SH-SY5Y cells (Homo sapiens, UniProt Q2M2I8); conditions: 2µM; SH-SY5Y cells; labeling site Lys2; peptide DLKVENILLHDR
From the text: as §1

[4] = target: cellular kinases of SH-SY5Y cells (Homo sapiens, UniProt O14757); conditions: 2µM; SH-SY5Y cells; Labeling Site Lys2; DIKPENLLLDER; read-out: KiNativ in-cell binding, % Inhibition, CHEK1/CHK1
From the text: as §1

[5] = target: T2, cellular kinases of SH-SY5Y cells (Homo sapiens, UniProt O96017); conditions: 2µM, SH-SY5Y cells, read-out: KiNativ in-cell binding, % Inhibition, CHEK2/CHK2
T2 construct: endogenous in cells; host or cells: SH-SY5Y
From the text: as §1

[6] = target: T3, cellular kinases of SH-SY5Y cells (Homo sapiens, UniProt Q15418); conditions: 2µM, SH-SY5Y cells
T3 construct: endogenous in cells; host or cells: SH-SY5Y
From the text: as §1

[7] = target: cellular kinases of SH-SY5Y cells (Homo sapiens, UniProt Q9Y2U5); conditions: 2µM; SH-SY5Y cells; Labeling Site Lys1; ELAVKQVQFDPDSPETSKEVNALECEIQLLK; read-out: KiNativ in-cell binding, % Inhibition, MAP3K2
From the text: as §1

[8] = target: T4, cellular kinases of SH-SY5Y cells (Homo sapiens, UniProt Q9Y2I7); conditions: 2µM; SH-SY5Y cells; Labeling Site ATP; GGKSGAAFYATEDDRFILK; read-out: KiNativ in-cell binding, % Inhibition, PIKFYVE
T4 construct: endogenous in cells; host or cells: SH-SY5Y
From the text: as §1

[9] = target: T5, cellular kinases of SH-SY5Y cells (Homo sapiens, UniProt Q16513); conditions: 2µM; SH-SY5Y cells; labeling site Lys2; peptide DLKLDNLLLDTEGFVK
T5 construct: endogenous in cells; host or cells: SH-SY5Y
From the text: as §1

[10] = target: T6, cellular kinases of SH-SY5Y cells (Homo sapiens, UniProt P46734); conditions: 2µM, SH-SY5Y cells
T6 sequence (P46734 1-347): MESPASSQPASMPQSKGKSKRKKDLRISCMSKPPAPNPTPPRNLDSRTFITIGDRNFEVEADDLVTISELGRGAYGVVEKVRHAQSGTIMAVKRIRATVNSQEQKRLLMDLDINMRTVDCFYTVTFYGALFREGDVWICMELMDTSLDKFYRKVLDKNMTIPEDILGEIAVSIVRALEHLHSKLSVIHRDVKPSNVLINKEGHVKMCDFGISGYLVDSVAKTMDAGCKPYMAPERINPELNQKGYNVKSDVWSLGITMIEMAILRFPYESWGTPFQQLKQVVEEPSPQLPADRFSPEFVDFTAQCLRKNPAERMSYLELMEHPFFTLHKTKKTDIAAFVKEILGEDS
From the text: as §1

[11] = target: T7, cellular kinases of SH-SY5Y cells (Homo sapiens, UniProt Q8TCG2); conditions: 2µM; SH-SY5Y cells; labeling site ATP; peptide SEEPYGQLNPKWTK
T7 construct: endogenous in cells; host or cells: SH-SY5Y
From the text: as §1

[12] = target: cellular kinases of SH-SY5Y cells (Homo sapiens, UniProt P07948); conditions: 2µM; SH-SY5Y cells; labeling site Lys1; peptide VAVKTLKPGTMSVQAFLEEANLMK
From the text: as §1

[13] = target: cellular kinases of SH-SY5Y cells (Homo sapiens, UniProt Q9NWZ3); conditions: 2µM, SH-SY5Y cells
From the text: as §1

[14] = target: cellular kinases of SH-SY5Y cells (Homo sapiens, UniProt Q96L34); conditions: 2µM, SH-SY5Y cells, read-out: KiNativ in-cell binding, % Inhibition, MARK4
From the text: as §1

[15] = target: T8, cellular kinases of SH-SY5Y cells (Homo sapiens, UniProt Q12851); conditions: 2µM; SH-SY5Y cells; Labeling Site Lys2; DIKGANLLLTLQGDVK; read-out: KiNativ in-cell binding, % Inhibition, GCK
T8 construct: endogenous in cells; host or cells: SH-SY5Y
From the text: as §1

cellular kinases of SH-SY5Y cells (Homo sapiens, UniProt Q9NWZ3), sequence (Q9NWZ3 whole entry): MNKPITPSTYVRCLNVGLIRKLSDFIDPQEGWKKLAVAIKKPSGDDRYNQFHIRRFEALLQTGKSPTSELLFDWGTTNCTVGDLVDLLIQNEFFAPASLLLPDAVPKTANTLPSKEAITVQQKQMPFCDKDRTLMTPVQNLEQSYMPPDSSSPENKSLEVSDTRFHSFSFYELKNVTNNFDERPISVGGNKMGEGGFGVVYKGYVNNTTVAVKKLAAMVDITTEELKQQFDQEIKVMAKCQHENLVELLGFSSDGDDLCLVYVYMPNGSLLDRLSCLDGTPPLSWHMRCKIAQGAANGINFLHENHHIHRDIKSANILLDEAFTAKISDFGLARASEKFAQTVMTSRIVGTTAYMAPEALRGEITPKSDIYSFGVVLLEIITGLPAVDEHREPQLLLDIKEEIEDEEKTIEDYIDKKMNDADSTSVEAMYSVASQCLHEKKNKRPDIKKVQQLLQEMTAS
T2 sequence (O96017 whole entry): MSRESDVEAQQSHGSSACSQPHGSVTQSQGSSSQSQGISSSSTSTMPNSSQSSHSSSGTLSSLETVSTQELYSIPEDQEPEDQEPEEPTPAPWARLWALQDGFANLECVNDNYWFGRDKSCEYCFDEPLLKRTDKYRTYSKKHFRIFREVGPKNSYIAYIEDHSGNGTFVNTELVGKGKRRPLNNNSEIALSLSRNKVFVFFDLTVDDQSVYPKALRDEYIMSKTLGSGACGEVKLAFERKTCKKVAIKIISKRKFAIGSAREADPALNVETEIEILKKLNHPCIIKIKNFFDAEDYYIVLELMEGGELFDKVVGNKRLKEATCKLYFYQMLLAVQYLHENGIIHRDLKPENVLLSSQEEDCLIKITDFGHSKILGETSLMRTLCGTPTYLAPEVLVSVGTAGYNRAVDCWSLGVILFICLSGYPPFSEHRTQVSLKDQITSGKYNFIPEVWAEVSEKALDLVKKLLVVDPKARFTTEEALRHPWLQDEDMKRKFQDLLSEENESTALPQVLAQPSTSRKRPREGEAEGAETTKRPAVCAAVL
cellular kinases of SH-SY5Y cells (Homo sapiens, UniProt Q96L34), sequence (Q96L34 whole entry): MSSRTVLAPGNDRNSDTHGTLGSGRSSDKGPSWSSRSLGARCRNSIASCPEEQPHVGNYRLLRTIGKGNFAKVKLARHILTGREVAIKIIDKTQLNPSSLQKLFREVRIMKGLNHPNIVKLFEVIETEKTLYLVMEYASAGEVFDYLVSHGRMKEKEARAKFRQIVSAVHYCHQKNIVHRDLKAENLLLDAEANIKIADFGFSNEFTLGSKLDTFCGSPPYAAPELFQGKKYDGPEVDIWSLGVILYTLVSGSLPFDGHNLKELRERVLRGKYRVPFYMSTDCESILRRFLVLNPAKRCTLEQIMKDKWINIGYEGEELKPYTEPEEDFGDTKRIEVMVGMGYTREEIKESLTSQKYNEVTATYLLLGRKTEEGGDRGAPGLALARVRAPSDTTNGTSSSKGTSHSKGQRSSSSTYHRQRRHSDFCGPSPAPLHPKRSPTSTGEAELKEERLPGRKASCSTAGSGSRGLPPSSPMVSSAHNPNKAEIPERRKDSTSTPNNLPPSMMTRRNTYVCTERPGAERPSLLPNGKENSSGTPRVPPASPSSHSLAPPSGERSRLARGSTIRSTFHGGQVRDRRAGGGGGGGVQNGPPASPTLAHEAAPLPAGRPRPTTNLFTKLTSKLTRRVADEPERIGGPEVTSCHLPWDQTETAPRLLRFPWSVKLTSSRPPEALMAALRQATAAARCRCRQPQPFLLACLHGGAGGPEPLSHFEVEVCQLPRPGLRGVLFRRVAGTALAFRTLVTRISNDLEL
T3 sequence (Q15418 whole entry): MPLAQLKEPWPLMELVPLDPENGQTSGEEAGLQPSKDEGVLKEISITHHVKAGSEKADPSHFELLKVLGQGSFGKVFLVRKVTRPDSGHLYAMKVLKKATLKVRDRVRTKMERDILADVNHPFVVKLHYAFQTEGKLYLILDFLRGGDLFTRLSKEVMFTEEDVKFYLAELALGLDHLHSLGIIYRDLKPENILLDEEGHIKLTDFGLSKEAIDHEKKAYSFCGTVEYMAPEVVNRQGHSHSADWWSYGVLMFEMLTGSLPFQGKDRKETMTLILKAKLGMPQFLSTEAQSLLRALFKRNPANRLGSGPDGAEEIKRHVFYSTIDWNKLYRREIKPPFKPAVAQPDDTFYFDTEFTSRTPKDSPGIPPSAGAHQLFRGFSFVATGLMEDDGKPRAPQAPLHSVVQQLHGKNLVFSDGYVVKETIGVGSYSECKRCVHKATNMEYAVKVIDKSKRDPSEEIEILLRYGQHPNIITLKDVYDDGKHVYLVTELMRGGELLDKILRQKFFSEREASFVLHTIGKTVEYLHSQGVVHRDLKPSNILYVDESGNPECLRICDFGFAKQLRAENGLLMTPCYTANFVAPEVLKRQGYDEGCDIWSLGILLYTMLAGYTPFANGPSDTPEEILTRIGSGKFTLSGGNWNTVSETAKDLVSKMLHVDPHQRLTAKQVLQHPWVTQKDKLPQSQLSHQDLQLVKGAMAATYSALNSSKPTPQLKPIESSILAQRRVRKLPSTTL
cellular kinases of SH-SY5Y cells (Homo sapiens, UniProt Q9Y2U5), sequence (Q9Y2U5 whole entry): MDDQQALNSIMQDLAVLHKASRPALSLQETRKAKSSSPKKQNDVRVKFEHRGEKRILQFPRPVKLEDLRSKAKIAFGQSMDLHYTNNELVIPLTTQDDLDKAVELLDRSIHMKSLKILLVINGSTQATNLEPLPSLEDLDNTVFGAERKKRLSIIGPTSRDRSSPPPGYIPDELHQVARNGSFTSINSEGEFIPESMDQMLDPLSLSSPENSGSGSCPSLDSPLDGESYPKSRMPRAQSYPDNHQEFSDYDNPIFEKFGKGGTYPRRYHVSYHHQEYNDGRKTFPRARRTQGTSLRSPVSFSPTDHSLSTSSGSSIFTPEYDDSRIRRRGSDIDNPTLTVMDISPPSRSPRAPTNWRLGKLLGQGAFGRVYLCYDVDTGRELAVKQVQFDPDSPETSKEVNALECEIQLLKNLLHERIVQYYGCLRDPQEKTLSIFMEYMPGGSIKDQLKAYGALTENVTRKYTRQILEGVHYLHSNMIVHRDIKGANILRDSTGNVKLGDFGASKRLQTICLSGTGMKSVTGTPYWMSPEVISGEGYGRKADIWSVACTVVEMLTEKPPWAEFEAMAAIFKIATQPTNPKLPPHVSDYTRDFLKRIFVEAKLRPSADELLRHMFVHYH
cellular kinases of SH-SY5Y cells (Homo sapiens, UniProt Q2M2I8), sequence (Q2M2I8 whole entry): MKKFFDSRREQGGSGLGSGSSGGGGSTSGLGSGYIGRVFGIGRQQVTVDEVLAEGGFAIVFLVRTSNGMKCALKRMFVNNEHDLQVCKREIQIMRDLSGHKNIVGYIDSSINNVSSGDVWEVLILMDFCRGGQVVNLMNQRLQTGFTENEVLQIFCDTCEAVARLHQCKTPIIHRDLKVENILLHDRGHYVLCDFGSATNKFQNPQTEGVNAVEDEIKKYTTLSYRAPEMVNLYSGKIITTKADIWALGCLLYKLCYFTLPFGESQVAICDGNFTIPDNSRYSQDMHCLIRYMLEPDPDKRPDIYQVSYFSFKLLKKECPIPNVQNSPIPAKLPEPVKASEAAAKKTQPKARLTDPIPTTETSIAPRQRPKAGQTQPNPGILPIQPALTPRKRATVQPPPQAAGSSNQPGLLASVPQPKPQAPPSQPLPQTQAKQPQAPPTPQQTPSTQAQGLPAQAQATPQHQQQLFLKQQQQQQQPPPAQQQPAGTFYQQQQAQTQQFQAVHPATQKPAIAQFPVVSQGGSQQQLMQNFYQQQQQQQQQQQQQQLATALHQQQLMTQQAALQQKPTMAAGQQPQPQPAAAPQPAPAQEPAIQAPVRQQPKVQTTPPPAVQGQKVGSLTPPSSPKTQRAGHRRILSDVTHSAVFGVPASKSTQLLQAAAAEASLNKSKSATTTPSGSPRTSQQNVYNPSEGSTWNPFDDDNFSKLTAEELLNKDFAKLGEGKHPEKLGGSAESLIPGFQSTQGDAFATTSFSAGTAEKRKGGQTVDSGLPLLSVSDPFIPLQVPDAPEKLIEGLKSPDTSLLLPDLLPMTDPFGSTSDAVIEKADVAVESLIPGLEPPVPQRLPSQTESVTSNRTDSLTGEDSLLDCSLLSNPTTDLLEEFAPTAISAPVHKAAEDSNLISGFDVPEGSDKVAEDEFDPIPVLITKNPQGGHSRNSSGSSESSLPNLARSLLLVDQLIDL
cellular kinases of SH-SY5Y cells (Homo sapiens, UniProt Q99759), sequence (Q99759 whole entry): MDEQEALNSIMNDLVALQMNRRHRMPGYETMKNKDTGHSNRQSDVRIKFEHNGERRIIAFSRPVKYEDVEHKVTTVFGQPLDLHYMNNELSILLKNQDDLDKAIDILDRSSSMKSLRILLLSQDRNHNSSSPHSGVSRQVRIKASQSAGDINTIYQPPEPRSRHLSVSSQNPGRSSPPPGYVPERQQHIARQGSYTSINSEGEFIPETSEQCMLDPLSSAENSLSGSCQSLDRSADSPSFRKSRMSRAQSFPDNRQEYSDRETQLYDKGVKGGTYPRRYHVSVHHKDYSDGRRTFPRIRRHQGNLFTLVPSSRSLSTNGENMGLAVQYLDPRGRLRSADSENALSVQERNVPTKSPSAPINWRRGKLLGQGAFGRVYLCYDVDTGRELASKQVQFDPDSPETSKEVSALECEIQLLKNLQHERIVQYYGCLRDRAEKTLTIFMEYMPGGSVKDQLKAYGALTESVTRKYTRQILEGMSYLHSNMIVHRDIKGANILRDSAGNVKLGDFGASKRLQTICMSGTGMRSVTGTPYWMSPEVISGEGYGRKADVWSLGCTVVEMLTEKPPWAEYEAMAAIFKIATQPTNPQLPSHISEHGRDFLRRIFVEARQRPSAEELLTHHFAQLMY

Cc1cccc(-c2nc(Nc3ccc4ncsc4c3)c3ccccc3n2)n1 [NK140]
inhibition at 2 µM [1]: 12.5% | inhibition at 2 µM ([2]; Labeling Site Activation Loop, LCDFGISGQLVDSIAKTR): -2.3% | inhibition at 2 µM ([2]; Labeling Site Lys2, DIKPSNILLDR): 4% | KiNativ in-cell binding, MAP2K4 ([2]; labeling site Lys1, peptide MVHKPSGQIMAVKR): 26.1 | KiNativ in-cell binding, AAK1 [3]: -42.8 | inhibition at 2 µM [4]: 16% | inhibition at 2 µM ([5]; Labeling Site Lys1, VAIKIISK): 7.7% | inhibition at 2 µM ([5]; Labeling Site Lys2, DLKPENVLLSSQEEDCLIK): 15.3% | inhibition at 2 µM ([6]; Labeling Site Activation Loop, LTDFGLSKEAIDHEKK, read-out: KiNativ in-cell binding, % Inhibition, RPS6KA1/RSK1 domain1): -25.4% | inhibition at 2 µM ([6]; Labeling Site Lys2, DLKPSNILYVDESGNPECLR, read-out: KiNativ in-cell binding, % Inhibition, RPS6KA1/RSK1 domain2): -53.6% | inhibition at 2 µM [7]: -2% | inhibition at 2 µM [8]: 15.6% | KiNativ in-cell binding, PKN2 [9]: -28.2 | inhibition at 2 µM ([10]; Labeling Site Activation Loop, MCDFGISGYLVDSVAKTMDAGCKPYMAPER, read-out: KiNativ in-cell binding, % Inhibition, MAP2K3): 2.5% | KiNativ in-cell binding, MAP2K3 ([10]; labeling site Lys1, peptide HAQSGTIMAVKR): -144.3 | KiNativ in-cell binding, MAP2K3 ([10]; labeling site Lys2, peptide DVKPSNVLINK): -182.7 | KiNativ in-cell binding, PI4K2B [11]: 11.9 | KiNativ in-cell binding, LYN [12]: -32.9 | inhibition at 2 µM ([13]; Labeling Site Lys1, GYVNNTTVAVKK, read-out: KiNativ in-cell binding, % Inhibition, IRAK4): -5.5% | KiNativ in-cell binding, IRAK4 ([13]; labeling site Lys2, peptide DIKSANILLDEAFTAK): -14.3 | inhibition at 2 µM ([14]; Labeling Site Lys1, EVAIKIIDKTQLNPSSLQK): 7.2% | inhibition at 2 µM ([14]; Labeling Site Lys2, DLKAENLLLDAEANIK): 11.5% | inhibition at 2 µM [15]: 11.6%
